Assay [1] deals with T1, Calpain-2 catalytic subunit (Sus scrofa, UniProt P43367).
T1 sequence (P43367 whole entry): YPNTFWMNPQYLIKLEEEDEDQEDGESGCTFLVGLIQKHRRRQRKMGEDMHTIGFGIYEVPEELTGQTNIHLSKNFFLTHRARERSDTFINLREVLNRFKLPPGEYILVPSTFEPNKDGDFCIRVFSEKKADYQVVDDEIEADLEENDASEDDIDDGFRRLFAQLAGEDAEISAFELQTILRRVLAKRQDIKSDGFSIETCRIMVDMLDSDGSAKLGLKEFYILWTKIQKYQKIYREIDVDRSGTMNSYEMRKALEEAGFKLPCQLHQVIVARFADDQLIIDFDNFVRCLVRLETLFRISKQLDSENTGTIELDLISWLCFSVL
As to the kind of experiment: m-calpain protease blockers, concentration series – biochemical, fluorogenic peptide substrate, dose response (AID 1420). The format is functional.

Assay [2] has as its target T2, Fatty acid synthase (Homo sapiens, UniProt P49327). As to the kind of experiment: inhibition of human FAS-TE enzyme activity – biochemical, endpoint fluorescence intensity, uHTS hits, dose response (AID 624327).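 Note: fluorescence from hydrolysis of an O-methyl fluorescein acyl ester substrate by the enzyme.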 The format is functional.
For assay [3], the target named is T2, Fatty acid synthase. As to the kind of experiment: inhibition of human FAS-TE enzyme activity – biochemical, kinetic fluorescence intensity, dose response (AID 624326).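 Note: rate of fluorescence rise from hydrolysis of a fluorogenic O-methyl fluorescein ester substrate.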 The format is functional.
Assay [4] is described as follows: Luminescence Cell-Based Dose Response HTS to Identify Activators of Luciferase Translation or Activity in H4 […] Cells. [Related pubchem assays: 1829 (Project Summary), 1814 (Primary HTS)]. The format is functional.
A further assay has as its target Large T antigen (Simian virus 40, UniProt P03070). The format is functional, Betapolyomavirus macacae.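 Note: Confirmatory-stage PubChem screen for compounds that inhibit SV40 T antigen.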
Assay [5] has as its target T3, Corticotropin-releasing factor receptor 2/Corticotropin-releasing factor-binding protein (Homo sapiens, UniProt P24387+Q13324).
T3 sequence (Q13324 whole entry): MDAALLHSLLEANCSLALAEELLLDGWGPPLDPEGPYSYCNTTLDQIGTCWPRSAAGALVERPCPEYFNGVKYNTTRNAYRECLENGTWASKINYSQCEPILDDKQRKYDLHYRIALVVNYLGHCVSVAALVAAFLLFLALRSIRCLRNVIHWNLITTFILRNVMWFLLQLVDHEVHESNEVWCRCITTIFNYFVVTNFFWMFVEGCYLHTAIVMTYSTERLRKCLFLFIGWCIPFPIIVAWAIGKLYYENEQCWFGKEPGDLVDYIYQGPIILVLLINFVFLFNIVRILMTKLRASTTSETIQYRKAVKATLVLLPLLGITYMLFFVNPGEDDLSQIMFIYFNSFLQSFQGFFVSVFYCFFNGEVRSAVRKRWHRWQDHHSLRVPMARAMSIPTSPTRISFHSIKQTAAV
T3 sequence (P24387 whole entry): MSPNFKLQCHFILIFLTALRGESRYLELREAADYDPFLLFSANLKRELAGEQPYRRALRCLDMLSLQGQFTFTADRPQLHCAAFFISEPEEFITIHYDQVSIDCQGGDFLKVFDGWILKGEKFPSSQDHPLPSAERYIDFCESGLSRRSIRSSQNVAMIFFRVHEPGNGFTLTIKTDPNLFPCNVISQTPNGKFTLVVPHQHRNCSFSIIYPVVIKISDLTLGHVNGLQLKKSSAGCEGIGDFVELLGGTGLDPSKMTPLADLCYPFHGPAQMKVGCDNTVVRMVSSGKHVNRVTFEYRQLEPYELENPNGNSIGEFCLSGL
As to the kind of experiment: Dose Response confirmation of uHTS hits for small molecule antagonists of the CRF-binding protein and CRF-R2 receptor complex. The note with it: read-out: IC50_Mean. The format is functional.

Assay [6] concerns the target T3, Corticotropin-releasing factor receptor 2/Corticotropin-releasing factor-binding protein. As to the kind of experiment: activators of CRF receptor 2 with binding protein – uHTS hits, confirmation (AID 602473). The format is functional. The conditions noted are these: read-out: EC50_Mean.
Assay [7] deals with T4, Rac GTPase-activating protein 1 (Homo sapiens, UniProt Q9H0H5).
T4 sequence (Q9H0H5 whole entry): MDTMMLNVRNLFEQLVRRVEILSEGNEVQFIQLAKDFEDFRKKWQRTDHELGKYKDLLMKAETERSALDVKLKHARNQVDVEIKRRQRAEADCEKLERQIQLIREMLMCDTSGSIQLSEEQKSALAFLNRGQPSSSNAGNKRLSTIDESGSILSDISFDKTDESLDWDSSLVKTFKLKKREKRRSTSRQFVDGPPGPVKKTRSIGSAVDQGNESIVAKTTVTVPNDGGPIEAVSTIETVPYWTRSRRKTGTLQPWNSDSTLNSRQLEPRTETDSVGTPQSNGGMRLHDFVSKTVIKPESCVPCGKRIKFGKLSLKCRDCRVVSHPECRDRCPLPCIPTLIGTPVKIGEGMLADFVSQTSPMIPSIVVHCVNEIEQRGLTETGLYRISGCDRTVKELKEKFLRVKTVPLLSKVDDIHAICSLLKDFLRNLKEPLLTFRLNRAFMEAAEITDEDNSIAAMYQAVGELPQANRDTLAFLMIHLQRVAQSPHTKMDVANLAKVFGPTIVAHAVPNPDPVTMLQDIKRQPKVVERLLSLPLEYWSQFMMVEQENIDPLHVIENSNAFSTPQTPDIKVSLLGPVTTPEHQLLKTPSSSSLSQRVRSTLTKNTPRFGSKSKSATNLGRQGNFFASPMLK
As to the kind of experiment: blockers of MgcRacGAP-driven Rac1 GTP hydrolysis – biochemical, ADP Hunter fluorescence, primary and confirmatory, confirmation (AID 624330). The format is functional.

Assay [8] in a line: Trypanosoma cruzi growth suppression in host cells – NIH3T3 host cells, beta-gal luminescence, confirmation (AID 2044).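 Note: intracellular parasites grown in NIH/3T3 mouse fibroblasts as host cells; luminescent beta-galactosidase reporter signal from transgenic T. cruzi replicating inside host cells; inhibitors lower the luminescence signal.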 The format is functional, cell-based.
A short description of assay [9]: NIH3T3 cell viability loss – ATP luminescence, mouse fibroblasts, counter-screen, dose response (AID 2010).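 Note: cells exposed to compound for about 90 hours before reading.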 The format is functional, cell-based. (A counterscreen serves to expose hits that act by an unwanted route or on another target.)
A short description of assay [10]: reduction of Shn3 3'UTR-driven luciferase in osteoblasts – cell-based, Clone20 osteoblasts, firefly luciferase, cherry-picked, dose response (AID 624132).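 Note: firefly luciferase luminescence from reporter carrying the Shn3 3'UTR in osteoblasts.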 The format is functional.
Assay [11] in a line: non-specific 3'UTR reporter inhibition in Clone20-Shn3RL – cell-based, Renilla luciferase, cherry-picked, counter-screen for Shn3 inhibitor project, dose response (AID 624133). The format is functional.
Assay [12] deals with FAD-linked sulfhydryl oxidase ALR (Homo sapiens, UniProt P55789). As to the kind of experiment: ALR-catalysed DTT oxidation blockers – biochemical, H2O2 detection, luminescence, cherry-pick, dose response (AID 493248).
Sequence of FAD-linked sulfhydryl oxidase ALR (P55789 whole entry): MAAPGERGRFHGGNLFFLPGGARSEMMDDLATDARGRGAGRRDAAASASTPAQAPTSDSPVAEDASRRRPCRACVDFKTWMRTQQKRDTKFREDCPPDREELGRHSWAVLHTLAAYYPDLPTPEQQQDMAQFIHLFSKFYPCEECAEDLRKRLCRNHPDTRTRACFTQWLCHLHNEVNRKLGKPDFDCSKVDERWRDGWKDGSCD

Active and inactive are the calls of the source. Some results are limits rather than exact numbers.

Sequence of Large T antigen (P03070 whole entry): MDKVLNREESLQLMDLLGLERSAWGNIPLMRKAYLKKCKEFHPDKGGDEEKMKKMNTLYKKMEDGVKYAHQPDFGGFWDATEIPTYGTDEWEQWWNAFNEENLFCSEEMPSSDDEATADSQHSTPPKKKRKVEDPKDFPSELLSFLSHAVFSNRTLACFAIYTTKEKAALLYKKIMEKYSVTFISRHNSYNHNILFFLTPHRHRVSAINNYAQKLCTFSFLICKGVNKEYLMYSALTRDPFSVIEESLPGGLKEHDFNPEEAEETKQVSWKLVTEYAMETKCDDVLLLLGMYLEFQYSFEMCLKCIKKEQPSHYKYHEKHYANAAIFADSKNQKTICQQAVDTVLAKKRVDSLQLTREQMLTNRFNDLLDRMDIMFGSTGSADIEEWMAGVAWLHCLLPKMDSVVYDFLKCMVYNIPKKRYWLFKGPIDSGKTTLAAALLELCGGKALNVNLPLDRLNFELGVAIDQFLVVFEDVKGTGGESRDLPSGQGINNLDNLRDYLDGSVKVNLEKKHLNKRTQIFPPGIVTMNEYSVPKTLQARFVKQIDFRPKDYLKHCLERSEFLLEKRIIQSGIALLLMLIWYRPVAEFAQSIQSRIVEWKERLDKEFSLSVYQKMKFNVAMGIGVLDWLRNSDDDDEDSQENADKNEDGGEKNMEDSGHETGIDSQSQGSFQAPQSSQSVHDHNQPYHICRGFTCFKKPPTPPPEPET
T2 sequence (P49327 whole entry): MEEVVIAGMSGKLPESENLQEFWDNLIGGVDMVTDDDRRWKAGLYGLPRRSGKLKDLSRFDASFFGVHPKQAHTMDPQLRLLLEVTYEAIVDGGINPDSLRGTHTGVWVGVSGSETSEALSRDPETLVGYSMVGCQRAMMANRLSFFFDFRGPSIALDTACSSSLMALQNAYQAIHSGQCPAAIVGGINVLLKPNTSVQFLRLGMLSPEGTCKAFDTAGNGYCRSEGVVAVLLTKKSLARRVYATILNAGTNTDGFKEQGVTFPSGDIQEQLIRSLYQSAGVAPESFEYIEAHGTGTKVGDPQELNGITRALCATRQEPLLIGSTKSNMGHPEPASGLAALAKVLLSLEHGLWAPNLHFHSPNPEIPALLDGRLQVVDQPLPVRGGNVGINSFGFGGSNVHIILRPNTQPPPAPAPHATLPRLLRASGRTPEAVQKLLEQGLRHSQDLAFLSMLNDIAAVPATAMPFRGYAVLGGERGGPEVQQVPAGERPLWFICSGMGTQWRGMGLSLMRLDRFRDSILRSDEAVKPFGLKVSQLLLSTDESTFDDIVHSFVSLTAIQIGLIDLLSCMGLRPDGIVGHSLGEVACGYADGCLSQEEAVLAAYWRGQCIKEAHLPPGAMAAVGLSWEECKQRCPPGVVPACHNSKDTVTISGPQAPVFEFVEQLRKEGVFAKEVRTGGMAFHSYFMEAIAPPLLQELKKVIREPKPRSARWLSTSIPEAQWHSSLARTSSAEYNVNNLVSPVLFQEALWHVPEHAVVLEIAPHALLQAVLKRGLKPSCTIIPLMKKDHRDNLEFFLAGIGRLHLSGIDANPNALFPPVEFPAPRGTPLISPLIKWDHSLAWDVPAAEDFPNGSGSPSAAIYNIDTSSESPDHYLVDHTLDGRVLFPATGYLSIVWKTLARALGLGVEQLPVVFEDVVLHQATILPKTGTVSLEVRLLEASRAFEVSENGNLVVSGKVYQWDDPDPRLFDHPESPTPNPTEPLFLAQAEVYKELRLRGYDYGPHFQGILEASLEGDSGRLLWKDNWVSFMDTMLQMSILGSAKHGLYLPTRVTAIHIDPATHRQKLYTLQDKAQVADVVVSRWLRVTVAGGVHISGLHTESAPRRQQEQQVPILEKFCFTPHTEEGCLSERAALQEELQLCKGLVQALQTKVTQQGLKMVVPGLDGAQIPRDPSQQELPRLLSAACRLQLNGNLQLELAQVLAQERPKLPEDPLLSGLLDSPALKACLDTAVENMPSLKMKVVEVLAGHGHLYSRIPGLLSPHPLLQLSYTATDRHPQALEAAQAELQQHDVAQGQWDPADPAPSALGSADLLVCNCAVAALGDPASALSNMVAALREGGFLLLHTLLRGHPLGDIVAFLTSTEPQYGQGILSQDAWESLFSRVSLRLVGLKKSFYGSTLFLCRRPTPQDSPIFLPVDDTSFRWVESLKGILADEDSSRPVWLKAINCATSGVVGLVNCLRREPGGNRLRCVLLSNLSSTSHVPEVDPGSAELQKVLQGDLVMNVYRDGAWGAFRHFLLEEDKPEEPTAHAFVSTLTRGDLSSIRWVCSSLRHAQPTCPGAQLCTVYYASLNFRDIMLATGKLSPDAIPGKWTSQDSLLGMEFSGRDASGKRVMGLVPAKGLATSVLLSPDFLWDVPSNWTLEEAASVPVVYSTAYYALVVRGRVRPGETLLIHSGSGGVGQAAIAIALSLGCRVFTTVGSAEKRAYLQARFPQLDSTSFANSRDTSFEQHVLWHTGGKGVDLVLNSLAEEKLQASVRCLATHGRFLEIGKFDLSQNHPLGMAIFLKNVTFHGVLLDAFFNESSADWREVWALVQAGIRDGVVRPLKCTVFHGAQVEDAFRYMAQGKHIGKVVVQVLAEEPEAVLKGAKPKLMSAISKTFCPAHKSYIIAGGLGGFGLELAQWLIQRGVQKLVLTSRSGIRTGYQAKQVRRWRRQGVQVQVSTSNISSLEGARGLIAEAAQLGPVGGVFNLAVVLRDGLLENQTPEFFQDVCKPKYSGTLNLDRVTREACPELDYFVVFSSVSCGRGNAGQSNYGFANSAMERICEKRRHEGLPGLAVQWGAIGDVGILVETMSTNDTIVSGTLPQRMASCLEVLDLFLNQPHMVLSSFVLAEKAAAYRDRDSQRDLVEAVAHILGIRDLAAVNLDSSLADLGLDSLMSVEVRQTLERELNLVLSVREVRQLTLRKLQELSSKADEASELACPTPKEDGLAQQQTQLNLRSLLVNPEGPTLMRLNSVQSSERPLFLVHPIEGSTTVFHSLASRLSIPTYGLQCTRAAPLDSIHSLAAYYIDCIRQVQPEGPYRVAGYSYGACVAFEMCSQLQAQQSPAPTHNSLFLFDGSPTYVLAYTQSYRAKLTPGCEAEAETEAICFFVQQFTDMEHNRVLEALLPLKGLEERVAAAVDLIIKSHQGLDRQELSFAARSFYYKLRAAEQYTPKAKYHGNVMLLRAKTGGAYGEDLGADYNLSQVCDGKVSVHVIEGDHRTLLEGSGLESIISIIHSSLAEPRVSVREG

`O=C(CCC1CCCCC1)Nc1ccc(C(=O)c2ccncc2)cc1`: the IC50 in assay [1] is 7.01 µM (not active). Take `CCN(CC)C(=O)C1CCCN(c2ccc([N+](=O)[O-])cc2/C=N/NC(=O)c2ccccc2)C1` (stereo not drawn): the IC50 at Fatty acid synthase [2] was 0.645 µM (active); on Fatty acid synthase [3], 0.846 µM (active).

Take `O=C(COC(=O)c1cccnc1O)NCCc1ccc(Cl)cc1Cl`: the EC50 in assay [4] was 0.367 µM (active).

With `COc1ccc(C(=O)/C=C(\C)Nc2ccc(NC(C)=O)cc2)cc1`, the IC50 at Large T antigen is 53.3 µM (active). On to `O=C(Oc1ccc(Cl)c2cccnc12)C12CC3CC(CC(C3)C1)C2`, for which, in assay [1], the IC50 is recorded as 11.9 µM (not active).

Regarding `Cn1nc(C(=O)OCC(=O)N2CCc3ccccc32)c2ccccc2c1=O`, in assay [1], the IC50 is listed as > 50 µM (not active). The same measure, in the same setting: as for `O=C(c1cc2cc([N+](=O)[O-])ccc2s1)N1CCCCC1`, the figure is 43.1 µM (not active). `COc1ccc(N2CCC(CN=C(S)Nc3c(C)cc(C)cc3C)C2)cc1` (stereo not drawn): the IC50 on Large T antigen was 19.1 µM (active). In the case of `COc1ccc2cc3cc(C(=O)N4CCCC(C)C4)oc3nc2c1` (stereo not drawn), the values for the IC50 on Fatty acid synthase [2] and on Fatty acid synthase [3] were 6.22 µM (active) and 5.48 µM (active), respectively. Consider `O=C(NC(=S)NCC1CCCO1)C(c1ccccc1)c1ccccc1` (stereo not drawn), for which the IC50 in [5] is > 47.1 µM (inactive). For the same molecule, the EC50 in assay [6] was > 53 µM (inactive).

With `C/C(=N\Nc1ccccn1)c1ccc(S(=O)(=O)NCc2ccco2)cc1`, the results for the IC50 on Fatty acid synthase [2] and on Fatty acid synthase [3] were 13.7 µM (active) and 10.3 µM (active), respectively.

Consider `CCc1ccc(OCc2nnc(S)n2Cc2ccccc2)cc1`, for which the IC50 in assay [1] was 4.01 µM (not active). For the molecule `COc1cc(/C=N/NC(=O)c2c(-c3ccccc3)noc2C)ccc1O`, the IC50 at Large T antigen was 15 µM (active); in assay [7] it was 50.2 µM (active). `O=C(NCCc1ccccc1)c1ccc(Cl)nc1`: the EC50 in [4] was 0.155 µM (inconclusive). Take `O=C(O)C1CC(=O)N(CCOc2ccccc2)C1` (stereo not drawn): in [5], the IC50 was > 47.1 µM (inactive). The EC50 in assay [6] is > 53 µM (inactive). For the molecule `COc1ccc(OC)c(NC(=O)COC(=O)CSc2ccc(Cl)cc2)c1`, the IC50 in assay [1] is given as 15.5 µM (not active). With `NC1=NC(=O)S/C1=C\c1ccc(O)cc1`, the IC50 is 4.59 µM (active) at Large T antigen, > 47.1 µM (inactive) in assay [5] and 15.7 µM (active) in [7]. Further, the EC50 in assay [6] is > 53 µM (inactive). For `C[C@@H](NC(=O)c1[nH]cnc1C(=O)N[C@@H](CCCCNC(=O)OC(C)(C)C)C(=O)OC(C)(C)C)c1ccccc1`, the IC50 in [1] is 8.84 µM (not active). Regarding `CCN(CC)c1ccc(NC(=O)C2CC(=O)N(Cc3ccccc3)C2)cc1` (stereo not drawn), on Large T antigen, the IC50 is 14.5 µM (active). As for `O=C(Cn1cc([N+](=O)[O-])ccc1=O)NCc1ccc(Cl)cc1Cl`, the values for the IC50 on Fatty acid synthase [2] and on Fatty acid synthase [3] were 15.8 µM (active) and 20.4 µM (inactive), respectively.

Turning to `COc1ccc([N+](=O)[O-])cc1/C=N/NC(=O)/C(=C\c1cccs1)NC(=O)c1ccccc1`, the IC50 at Fatty acid synthase [2] is 2.62 µM (active); on Fatty acid synthase [3], 1.97 µM (active). In the case of `COc1ccc(CN(C)Cc2nc3scc(-c4ccccc4)c3c(=O)[nH]2)cc1OC`, in [5], the IC50 is > 47.1 µM (inactive). For the same molecule, the EC50 in assay [6] was > 53 µM (inactive). Take `CN1C=CC=C/C1=C(\C#N)c1nc2ccccc2[nH]1`: the IC50 on Large T antigen was 7.7 µM (active); in assay [7] it was 46.4 µM (active). `CNC(=S)N/N=C/C1=CCC2CC1C2(C)C` (stereo not drawn): the IC50 in [1] was > 50 µM (not active). For the molecule `COc1ccc(NC(=O)Nc2nnc(C(C)(C)C)s2)cc1`, the IC50 in assay [5] was > 47.1 µM (inactive). The EC50 in assay [6] was > 53 µM (inactive). As to `O=C(/C=C/c1ccc(O)c(O)c1)O[C@@H]1C[C@](O)(C(=O)O)C[C@@H](O)[C@H]1O`, the IC50 at Large T antigen is 2.86 µM (active). `O=C(CSc1ccccn1)C12CC3CC(CC(C3)C1)C2`: in assay [1], the IC50 is on record as > 50 µM (not active).

On to `COc1ccc2c(c1)c(CC(=O)Nc1cc(C)ccc1C)c(C)n2C(=O)c1ccc(Cl)cc1`, for which the values for the EC50 in assay [8], in [9] and in [6] were 0.938 µM (active), > 60 µM (not active) and > 53 µM (inactive), respectively. In addition, the concentration at half-maximal activity (AC50) is 5.69 µM (active) in assay [10] and 13.1 µM (active) in assay [11]. For `Fc1ccc(Cn2nnnc2C(c2cccs2)N2CCCCCC2)cc1` (stereo not drawn), the IC50 in assay [1] is reported as 7.88 µM (not active). For `O=C(c1ccc(F)cc1Cl)N(Cc1ccco1)C1CCS(=O)(=O)C1` (stereo not drawn), in assay [5], the IC50 was > 47.1 µM (inactive). In addition, the EC50 in assay [6] is > 53 µM (inactive). As to `O=C(CCNC(=O)c1ccc([N+](=O)[O-])cc1)NC1CCCCCC1`, the IC50 on Fatty acid synthase [2] is 8.77 µM (active); at Fatty acid synthase [3] it was 7.06 µM (active). For the molecule `O=c1cc(-c2ccccc2)ss1`, in [5], the IC50 is > 47.1 µM (inactive). The EC50 in assay [6] was > 53 µM (inactive). On to `O=C(CN1C(=O)/C(=C/c2cccc(Br)c2)SC1=S)NC1=NCCS1`, for which the IC50 in assay [1] was > 50 µM (not active). Regarding `COCCNC(=S)N1CCc2cc(OC)c(OC)cc2C1COc1ccc(C(C)C)cc1` (stereo not drawn), the IC50 in [5] is > 47.1 µM (inactive). For the same molecule, in assay [6], the EC50 is > 53 µM (inactive). `CCN(CC)c1ccc(/C=N/O)cc1`: the IC50 on Large T antigen was 6.52 µM (active); in assay [7] it was 20.2 µM (active). As for `CCN(CC)c1cc2nonc2c2nonc12`, the figures for the IC50 on Fatty acid synthase [2] and at Fatty acid synthase [3] were 15.9 µM (active) and 19.4 µM (active), respectively. `CN(C)/C=N/C1=NN(c2cccc(C(F)(F)F)c2)CC1`: the IC50 is 13 µM (active) on Large T antigen and 38.3 µM (active) in assay [7]. Besides, in assay [12], the AC50 was 1.5 µM (active).

For orientation: AC50 means the concentration giving half of the maximal activity seen.

The values are drawn from ChEMBL document CHEMBL1201862, “PubChem BioAssay data set” (2004).
